Reference: patent US20140079836A1, “METHODS AND COMPOSITIONS FOR ALTERING HEALTH, WELLBEING, AND LIFESPAN” (LifeSpan Extension, LLC, priority 2008, published 2014)

System: entire human genome (gene expression profile)
Test: Agilent whole human genome array, skin fibroblasts AG07999, antioxidant with or without UV
Format: cell-based
Method: Cell cultures: A human skin fibroblast cell culture was obtained through the Coriell Cell Repository from the National Institute on Aging Cell Repository. […] Culture media: Cells were grown in Minimal Essential Medium supplemented with 10% fetal bovine serum, 2 mM L-glutamine, 2 mM Glutamax I. […] All cultures were incubated at 37° C. with 5% CO2 in a humidified chamber. […] On Day 5 after 24 hours of exposure to test conditions, the cells were isolated and the RNA isolated using the RT^2q PCR-grade RNA isolation kit (Superarray Bioscience Corporation). […] Analysis of Agilent Whole Human Genome Arrays: RNA taken from both samples was sent to Cogenics, Inc. Morrisville, N.C. Cogenics, Inc. is a leading, state-of-the-art, microarray service provider that facilitates and accelerates transcriptome profiling and gene discovery processes for industrial and academic researchers. Cogenics' procedure for processing samples is as follows: RNA samples are received and analyzed by Cogenics, Inc. using rigorous standardized procedures that are designed to ensure quality and chain of custody. Each sample undergoes a thorough quality analysis using an Agilent Bioanalyzer microfluidics device, and is precisely quantified using a Nanodrop-1000 spectro-photometer. When the Agilent Oligonucleotide Microarray Platform is utilized, samples are fluorescently labeled using the Agilent Low-Input Linear Amplification Kit. Upon completion of this process, the labeled cRNA products are assessed using the same processes described above. These labeled samples are then fragmented and hybridized to oligonucleotide microarrays. The microarrays are washed and then scanned using an Agilent DNA Microarray Scanner with Sure Scan technology. Data is extracted from the images produced by the scanner using Agilent's Feature Extraction software. At this point, the scanned image is visually inspected for defects, and the extracted data is statistically analyzed to ensure quality of the assay. Extracted data and images can be loaded into Rosetta Resolver Gene Expression Data Analysis System for in-depth analysis, both from a quality standpoint, as well as to develop biological understanding. […] A table was generated and provided as a tab-delimited text file. This file will contain the log ratio, fold-change, log ratio p-value, etc. for every transcript measured by the microarray. Using Rosetta Resolver, a single ratio comparison was compiled based on the results of the two fluorophore reversal hybridization performed in the context of this project. The ratios were calculated such that the Tx sample was in the numerator and the UnTx sample was in the denominator. A table was generated, saved as tab-delimited text files, and is provided on the DVD that accompanied this report in the “Objective—1” subdirectory or the “Data_Analysis” directory. These files contain the log ratio, fold-change, log ratio p-value, etc. for every transcript present on the microarray. […] A table for will be generated and provided as a tab-delimited text file. The file will contain the log ratio, fold-change, log ratio p-value, etc. for only the differentially expressed transcripts within the context of the comparison. […] These criteria were applied to the comparison made in Objective 1. A table was generated, saved as tab-delimited text files, and is provided on the DVD that accompanied this report in the “Objective—1” subdirectory or the “Data_Analysis” directory. […] Cell cultures: A human skin fibroblast cell culture (or cultures) will be obtained through the Coriell Cell Repository from the National Institute on Aging Cell Repository. […] Culture media: Cells will be grown in Minimal Essential Medium supplemented with 10% fetal bovine serum, 2 mM L-glutamine, 2 mM Glutamax I.

COC1=C(OC)C(=O)C(CCCCCCCCCCO)=C(C)C1=O [Idebenone, 6-(10-hydroxydecyl)-2,3-dimethoxy-5-methyl-1,4-benzoquin-one]
2.0: DUOX2 Expression (Idebenone + UVB)
−1.1: TBXA2R Expression (Alone) | TFAP2C Expression (Alone) | TGM1 Expression (Alone) | THBS1 Expression (Alone) | TM4SF1 Expression (Alone) | TNFRSF1A Expression (Alone) | UBE2V1 Expression (Alone) | CDKN1A Expression (Idebenone + UVB) | GPX1 Expression (Idebenone + UVB) | GPX4 Expression (Idebenone + UVB) | GSS Expression (Idebenone + UVB) | JUN Expression (Idebenone + UVB) | MTL5 Expression (Idebenone + UVB) | NUDT1 Expression (Idebenone + UVB) | PREX1 Expression (Idebenone + UVB) | PRKCA Expression (Idebenone + UVB) | SIRT2 Expression (Idebenone + UVB) | SOD1 Expression (Idebenone + UVB) | SRXN1 Expression (Idebenone + UVB) | TROAP Expression (Idebenone + UVB) | ALOX12 Expression (Idebenone Alone) | CAMK1 Expression (Idebenone Alone) | DUOX2 Expression (Idebenone Alone) | GSS Expression (Idebenone Alone) | MT3 Expression (Idebenone Alone) | PRDX6 Expression (Idebenone Alone) | RAP1 Expression (Human Genome Expression Values) (agent + UVB) | TRF2 Expression (Human Genome Expression Values) (agent + UVB) | RAP1 Expression (Human Genome Expression Values) (agent Alone) | TPP1 Expression (Human Genome Expression Values) (agent Alone)
−1.0: TERF1 Expression (Alone) | ATOX1 Expression (Idebenone + UVB) | DLG4 Expression (Idebenone + UVB) | DND1 Expression (Idebenone + UVB) | EGFR Expression (Idebenone + UVB) | NOS3 Expression (Idebenone + UVB) | PKAR1B Expression (Idebenone + UVB) | PRG3 Expression (Idebenone + UVB) | RNF7 Expression (Idebenone + UVB) | SCARA3 Expression (Idebenone + UVB) | ATOX1 Expression (Idebenone Alone) | CCS Expression (Idebenone Alone) | FOXM1 Expression (Idebenone Alone) | INS Expression (Idebenone Alone) | NRF1 Expression (Idebenone Alone) | PRNP Expression (Idebenone Alone) | SIRT2 Expression (Idebenone Alone) | SOD1 Expression (Idebenone Alone) | TROAP Expression (Idebenone Alone) | POT1 Expression (Human Genome Expression Values) (agent Alone) | TNKS2 Expression (Human Genome Expression Values) (agent Alone) | TRF1 Expression (Human Genome Expression Values) (agent Alone)
1.8: ALOX12 Expression (Idebenone + UVB) | EGFR Expression (Idebenone Alone)
−1.7: CAMK1 Expression (Idebenone + UVB) | GCH1 Expression (Idebenone + UVB) | NCF1 Expression (Idebenone Alone) | VEGFA Expression (Idebenone Alone)
1.5: UBE2C Expression (Alone) | MTL5 Expression (Idebenone Alone) | SRXN1 Expression (Idebenone Alone)
−1.3: TGFBR2 Expression (Alone) | CAT Expression (Idebenone + UVB) | HSP90AB1 Expression (Idebenone + UVB) | PNKP Expression (Idebenone + UVB) | VEGFA Expression (Idebenone + UVB) | GPX4 Expression (Idebenone Alone) | NQO1 Expression (Idebenone Alone) | PRDX2 Expression (Idebenone Alone) | SOD3 Expression (Idebenone Alone) | TXNRD2 Expression (Idebenone Alone) | TERT Expression (Human Genome Expression Values) (agent + UVB)
1.9: NOS1 Expression (Idebenone Alone)
−2.2: EPX Expression (Idebenone + UVB)
−1.5: FOXM1 Expression (Idebenone + UVB)
1.4: GPX5 Expression (Idebenone + UVB) | UNR Expression (Idebenone + UVB) | CDKN1A Expression (Idebenone Alone) | SCRT2 Expression (Idebenone Alone)
1.3: GPR156 Expression (Idebenone + UVB) | SCRT2 Expression (Idebenone + UVB) | TTN Expression (Idebenone + UVB) | GPR156 Expression (Idebenone Alone) | NUDT1 Expression (Idebenone Alone) | TNKS Expression (Human Genome Expression Values) (agent + UVB) | TRF1 Expression (Human Genome Expression Values) (agent + UVB)
1.0: TEP1 Expression (Alone) | TFAP2B Expression (Alone) | TGFA Expression (Alone) | TGFB1 Expression (Alone) | TNFRSF11B Expression (Alone) | VEGFC Expression (Alone) | YWHAZ Expression (Alone) | CCNA1 Expression (Idebenone + UVB) | DDAH2 Expression (Idebenone + UVB) | DNCL1 Expression (Idebenone + UVB) | GCHFR Expression (Idebenone + UVB) | GLA Expression (Idebenone + UVB) | GLRX2 Expression (Idebenone + UVB) | IL8 Expression (Idebenone + UVB) | KRT1 Expression (Idebenone + UVB) | MBL2 Expression (Idebenone + UVB) | MPO Expression (Idebenone + UVB) | MYB Expression (Idebenone + UVB) | NOSTRIN Expression (Idebenone + UVB) | PRDX2 Expression (Idebenone + UVB) | PRNP Expression (Idebenone + UVB) | SELS Expression (Idebenone + UVB) | SEPP1 Expression (Idebenone + UVB) | SOD2 Expression (Idebenone + UVB) | TPO Expression (Idebenone + UVB) | AKT1 Expression (Idebenone Alone) | APOE Expression (Idebenone Alone) | ARG2 Expression (Idebenone Alone) | CCNA1 Expression (Idebenone Alone) | CYBA Expression (Idebenone Alone) | DLG4 Expression (Idebenone Alone) | DNCL1 Expression (Idebenone Alone) | DND1 Expression (Idebenone Alone) | DUOX1 Expression (Idebenone Alone) | GCH1 Expression (Idebenone Alone) | GCHFR Expression (Idebenone Alone) | GPX1 Expression (Idebenone Alone) | GPX2 Expression (Idebenone Alone) | GPX3 Expression (Idebenone Alone) | GPX5 Expression (Idebenone Alone) | GRIN2D Expression (Idebenone Alone) | HSP90AB1 Expression (Idebenone Alone) | JUN Expression (Idebenone Alone) | MBL2 Expression (Idebenone Alone) | MPO Expression (Idebenone Alone) | MSRA Expression (Idebenone Alone) | MYB Expression (Idebenone Alone) | NME5 Expression (Idebenone Alone) | NOS2A Expression (Idebenone Alone) | NOS3 Expression (Idebenone Alone) | NOSIP Expression (Idebenone Alone) | NOX5 Expression (Idebenone Alone) | OXR1 Expression (Idebenone Alone) | PNKP Expression (Idebenone Alone) | PP3CA Expression (Idebenone Alone) | PREX1 Expression (Idebenone Alone) | PRG3 Expression (Idebenone Alone) | PRKCA Expression (Idebenone Alone) | SELS Expression (Idebenone Alone) | TPO Expression (Idebenone Alone) | TTN Expression (Idebenone Alone) | UNR Expression (Idebenone Alone) | TPP1 Expression (Human Genome Expression Values) (agent + UVB) | TRF2 Expression (Human Genome Expression Values) (agent Alone)
1.2: STOML2 Expression (Alone) | TYMS Expression (Alone) | ARG2 Expression (Idebenone + UVB) | DUOX1 Expression (Idebenone + UVB) | DUSP1 Expression (Idebenone + UVB) | MSRA Expression (Idebenone + UVB) | NME5 Expression (Idebenone + UVB) | NOS1 Expression (Idebenone + UVB) | PGC Expression (Idebenone + UVB) | CAT Expression (Idebenone Alone) | CYGB Expression (Idebenone Alone) | RNF7 Expression (Idebenone Alone) | SEPP1 Expression (Idebenone Alone) | SGK2 Expression (Idebenone Alone) | POT1 Expression (Human Genome Expression Values) (agent + UVB)
−1.2: TAGLN Expression (Alone) | TFAP2A Expression (Alone) | APOE Expression (Idebenone + UVB) | CCS Expression (Idebenone + UVB) | CYBA Expression (Idebenone + UVB) | GPX2 Expression (Idebenone + UVB) | GPX3 Expression (Idebenone + UVB) | NCF1 Expression (Idebenone + UVB) | NOSIP Expression (Idebenone + UVB) | NOX5 Expression (Idebenone + UVB) | NQO1 Expression (Idebenone + UVB) | SGK2 Expression (Idebenone + UVB) | GLA Expression (Idebenone Alone) | IL8 Expression (Idebenone Alone) | PGC Expression (Idebenone Alone) | SOD2 Expression (Idebenone Alone) | TFAM Expression (Idebenone Alone)
−1.8: TNFRSF1B Expression (Alone)
−1.6: AKT1 Expression (Idebenone + UVB) | TXNRD2 Expression (Idebenone + UVB) | EPX Expression (Idebenone Alone)
1.1: TERT expression (Alone) | TFRC Expression (Alone) | TNF Expression (Alone) | XRCC6BP1 Expression (Alone) | GRIN2D Expression (Idebenone + UVB) | IL10 Expression (Idebenone + UVB) | INS Expression (Idebenone + UVB) | LPO Expression (Idebenone + UVB) | MT3 Expression (Idebenone + UVB) | NOS2A Expression (Idebenone + UVB) | OXR1 Expression (Idebenone + UVB) | PP3CA Expression (Idebenone + UVB) | PRDX6 Expression (Idebenone + UVB) | SOD3 Expression (Idebenone + UVB) | TFAM Expression (Idebenone + UVB) | DDAH2 Expression (Idebenone Alone) | GLRX2 Expression (Idebenone Alone) | IL10 Expression (Idebenone Alone) | KRT1 Expression (Idebenone Alone) | LPO Expression (Idebenone Alone) | NCF2 Expression (Idebenone Alone) | NOSTRIN Expression (Idebenone Alone) | PKAR1B Expression (Idebenone Alone) | SCARA3 Expression (Idebenone Alone) | TIN2 Expression (Human Genome Expression Values) (agent + UVB) | TNKS2 Expression (Human Genome Expression Values) (agent + UVB) | TERT Expression (Human Genome Expression Values) (agent Alone) | TIN2 Expression (Human Genome Expression Values) (agent Alone) | TNKS Expression (Human Genome Expression Values) (agent Alone)
1.6: TH Expression (Alone) | TK1 Expression (Alone) | TOP2A Expression (Alone) | NCF2 Expression (Idebenone + UVB)
−1.4: TIMP1 Expression (Alone) | TIMP2 Expression (Alone) | CYGB Expression (Idebenone + UVB) | NRF1 Expression (Idebenone + UVB) | DUSP1 Expression (Idebenone Alone)
